Key:
[1] = tested on: human Cav3.1 Cav3.2 or Cav3.3 channel; test: In vitro assay T channel (FLIPR, Ca2+-induced calcium fluorescence); assay type: cell-based; details: HEK293 cells; 10 mM Ca2+; geometric mean from n values; read-out: T channel antagonistic activity IC50
Experimental: The T channel antagonistic activity (IC50 values) of the compounds of formula (I) is determined in accordance with the following experimental method and data are shown in Table 1.
Human embryonic kidney (HEK293) cells expressing the human Cav3.1 Cav3.2 or Cav3.3 channel, respectively, are grown in culture medium (DMEM containing 10% heat-inactivated fetal calf serum (FCS), 100 U/ml penicillin, 100 μg/ml streptomycin and 1 mg/ml G418). The cells are seeded at 20.000 cells/well into 384-well black clear bottom sterile plates (poly-L-lysine-coated, Becton Dickinson). The seeded plates are incubated overnight at 37° C. in 5% CO2. The Ca^2+ solution is prepared as 100 mM stock solution in 100 mM tetraethylammoniumchloride (TEA-chloride), 50 mM HEPES, 2.5 mM CaCl2, 5 mM KCl, 1 mM MgCl2, adjusted to pH 7.2 with TEA-hydroxide, for use in the assay at a final concentration of 10 mM. Antagonists are prepared as 10 mM stock solutions in DMSO, then diluted in 384 w plates first in DMSO, then in 100 mM TEA-chloride, 50 mM HEPES, 2.5 mM CaCl2, 5 mM KCl, 1 mM MgCl2, adjusted to pH 7.2 with TEA-hydroxide, to obtain 9× stocks. On the day of the assay, 25 μl of staining buffer (HBSS containing 20 mM HEPES, 0.375 g/l NaHCO3 and 3 μM of the fluorescent calcium indicator fluo-4 AM (1 mM stock solution in DMSO, containing 10% pluronic) is added to each well of the seeded plate. The 384-well cell-plates are incubated for 60 min at 37° C. in 5% CO2 followed by washing with 2×50 μl per well using HBSS containing 0.1% BSA, 20 mM HEPES, 0.375 g/l NaHCO3, leaving 50 […] of this buffer for equilibration at room temperature (30-60 min). Within the Fluorescent Imaging Plate Reader (FLIPR, Molecular Devices), antagonists are added to the plate in a volume of 6.25 Owen, incubated for 3 min, and finally 6.25 […] of Ca^2+ solution is added. Fluorescence is measured for each well at 2 second intervals for 8 minutes, and the area under the curve of each fluorescence peak is compared to the area of the fluorescence peak induced by 10 mM Ca^2+ with vehicle in place of antagonist. For each antagonist, the 1050 value (the concentration (in nM) of compound needed to inhibit 50% of the Ca^2+-induced fluorescence response) up to 10 μM is determined. The calculated IC50 values of the compounds may fluctuate depending on the daily cellular assay performance. Fluctuations of this kind are known to those skilled in the art.

isolated mouse hearts = test: Effect on isolated hearts according to the Langendorff method (Lgdff)
Experimental: The compounds were tested for their potential to reduce blood pressure and their effect on the contractility of the heart muscle. EC50 values on isolated mouse hearts were determined according to Literature (Doring H J., The isolated perfused heart according to Langendorff technique—function—application, Physiol. Bohemoslov. 1990, 39(6), 481-504; Kligfield P, Horner H, Brachfeld N., A model of graded ischemia in the isolated perfused rat heart, J. Appl. Physiol. 1976 June, 40(6), 1004-8).
7 example compounds have been measured using the procedure described above for the Langendorff experiment. The measured EC50 values were in the range of 7 to 29 nM with an average of 13 nM.

Work on COCC(C)(COC)CN(CCCN(C)CC[C@@]1(O)CCc2cc(F)ccc2[C@@H]1C(C)C)CC(F)F [Example 5, (1S,2S)-2-[2-({3-[(2,2-Difluoro-ethyl)-(3-methoxy-2-methoxymethyl-2-methyl-propyl)-amino]-propyl}methyl-amino)-ethyl]-6-fluoro-1-isopropyl-1,2,3,4-tetrahydro-naphthalen-2-ol] yielded an IC50 [1] of 3.7 µM.
COCC(C)(COC)CN(CCCN(C)CC[C@@]1(OC(=O)CC(F)(F)F)CCc2cc(F)ccc2[C@@H]1C(C)C)CC(F)F [Example 7, 3,3,3-Trifluoro-propionic acid (1S,2S)-2-[2-({3-[(2,2-difluoro-ethyl)-(3-methoxy-2-methoxymethyl-2-methyl-propyl)-amino]-propyl}-methyl-amino)-ethyl]-6-fluoro-1-isopropyl-1,2,3,4-tetrahydro-naphthalen-2-yl ester] gave an IC50 [1] of 6.34 µM.
COCC(C)(COC)CN(CCF)CCCN(C)CC[C@@]1(OC(=O)CF)CCc2cc(F)ccc2[C@@H]1C(C)C [Example 4, Fluoro-acetic acid (1S,2S)-6-fluoro-2-[2-({3-[(2-fluoro-ethyl)-(3-methoxy-2-methoxymethyl-2-methyl-propyl)-amino]-propyl}-methyl-amino)-ethyl]-1-isopropyl-1,2,3,4-tetrahydro-naphthalen-2-yl ester] showed an IC50 [1] of 3.96 µM.
Work on COCC(C)(COC)CN(CCCN(C)CC[C@@]1(O)CCc2cc(F)ccc2[C@@H]1C(C)C)CC(F)(F)F [Example 8, (1S,2S)-6-Fluoro-1-isopropyl-2-[2-({3-[(3-methoxy-2-methoxymethyl-2-methyl-propyl)-(2,2,2-trifluoro-ethyl)-amino]-propyl}-methyl-amino)-ethyl]-1,2,3,4-tetrahydro-naphthalen-2-ol] yielded an IC50 [1] of 2.88 µM.
Molecule COCC(C)(COC)CN(CCF)CCCN(C)CC[C@@]1(O)CCc2cc(F)ccc2[C@@H]1C(C)C [Example 1, (1S,2S)-6-Fluoro-2-[2-({3-[(2-fluoro-ethyl)-(3-methoxy-2-methoxymethyl-2-methyl-propyl)-amino]-propyl}-methyl-amino)-ethyl]-1-isopropyl-1,2,3,4-tetrahydro-naphthalen-2-ol] has an IC50 [1] of 3.25 µM.
COCC(C)(COC)CN(CCCN(C)CC[C@@]1(OC(=O)C(C)C)CCc2cc(F)ccc2[C@@H]1C(C)C)CC(F)(F)F [Example 9, Isobutyric acid (1S,2S)-6-fluoro-1-isopropyl-2-[2-({3-[(3-methoxy-2-methoxymethyl-2-methyl-propyl)-(2,2,2-trifluoro-ethyl)-amino]-propyl}-methyl-amino)-ethyl]-1,2,3,4-tetrahydro-naphthalen-2-yl ester] gave an IC50 [1] of 1.69 µM.
COCC(C)(COC)CN(CCF)CCCN(C)CC[C@@]1(OC(=O)C(C)C)CCc2cc(F)ccc2[C@@H]1C(C)C [Example 2, Isobutyric acid (1S,2S)-6-fluoro-2-[2-({3-[(2-fluoro-ethyl)-(3-methoxy-2-methoxymethyl-2-methyl-propyl)-amino]-propyl}-methyl-amino)-ethyl]-1-isopropyl-1,2,3,4-tetrahydro-naphthalen-2-yl ester] was tested, and the IC50 [1] was 3.15 µM.
Work on COCC(C)(COC)CN(CCCN(C)CC[C@@]1(OC(=O)CC(F)(F)F)CCc2cc(F)ccc2[C@@H]1C(C)C)CC(F)(F)F [Example 10, 3,3,3-Trifluoro-propionic acid (1S,2S)-6-fluoro-1-isopropyl-2-[2-({3-[(3-methoxy-2-methoxymethyl-2-methyl-propyl)-(2,2,2-trifluoro-ethyl)-amino]-propyl}-methyl-amino)-ethyl]-1,2,3,4-tetrahydro-naphthalen-2-yl ester] yielded an IC50 [1] greater than 10 µM and an EC50 (isolated mouse hearts) of 0.009 µM.
Work on COCC(C)(COC)CN(CCCN(C)CC[C@@]1(OC(=O)C(C)C)CCc2cc(F)ccc2[C@@H]1C(C)C)CC(F)F [Example 6, Isobutyric acid (1S,2S)-2-[2-({3-[(2,2-difluoro-ethyl)-(3-methoxy-2-methoxymethyl-2-methyl-propyl)-amino]-propyl}-methyl-amino)-ethyl]-6-fluoro-1-isopropyl-1,2,3,4-tetrahydro-naphthalen-2-yl ester] yielded an IC50 [1] of 7.89 µM and an EC50 (isolated mouse hearts) of 0.009 µM.
COCC(C)(COC)CN(CCF)CCCN(C)CC[C@@]1(OC(=O)CC(F)(F)F)CCc2cc(F)ccc2[C@@H]1C(C)C [Example 3, 3,3,3-Trifluoro-propionic acid (1S,2S)-6-fluoro-2-[2-({3-[(2-fluoro-ethyl)-(3-methoxy-2-methoxymethyl-2-methyl-propyl)-amino]-propyl}-methyl-amino)-ethyl]-1-isopropyl-1,2,3,4-tetrahydro-naphthalen-2-yl ester] was tested, and the IC50 [1] was 5.41 µM and the EC50 (isolated mouse hearts) was 0.007 µM.

Source: patent publication US8436205B2, “Tetrahydronaphthalene compounds” (Actelion Pharmaceuticals Ltd., priority 2008, dated 2013)
